For one data set, the system named is ICAM-1. Put plainly: Cell surface ELISA for ICAM-1 in human umbilical vein endothelial cells (HUVEC), TNF-alpha induced. Format: cell-based. Particulars: 50 μM, average of two runs, numbers in parentheses represent negative values. Here is the method: Cell Surface ELISA for VCAM-1/ICAM-1
Proliferating human umbilical vein endothelial cells (HUVEC) or human aortic smooth muscle cells (HASMC) from Clonetics (San Diego, Calif.) were plated onto 96-well plates in 100 μL medium per well at 20,000 cells per cm^2. The cultures were maintained in growth medium (EGM or SMGM2, Clonetics, San Diego, Calif.) for two days prior to addition of cytokines or drugs. Cytokines plus or minus compounds were added for 20 to 24 hours prior to analysis for adhesion molecule levels. Tumor necrosis factor (Genzyme, Cambridge, Mass.) was added to cultures at 500-1000 units/mL. Interleukin-4 (GIBCO-BRL, Gaithersburg, Md.) was added to cultures at 100-200 pg/mL. (Additions were made by transferring 100 [μL of cytokines plus compounds serially diluted on a separate 96-well plate into the plates containing cells. The medium on the cultures was not exchanged prior to addition of effectors). The culture medium was removed, and the monolayers were washed twice with Hanks buffered saline solution (HBSS) at room temperature. The primary antibody (anti-human VCAM-1 from Upstate Biotechnology, Inc., Lake Placid, N.Y. or anti-human ICAM-1 from Immunotech, Inc., Westbrook, Me.) was added to each well (1 μg/mL in HBSS plus 5% newborn calf serum, GIBCO-BRL, Gaithersburg, Md.) and incubated at 37° C. for 1 hr. The wells were washed twice with HBSS, then 100 μL of a 1/1000 dilution of goat anti-mouse IgG conjugated to horse radish peroxidase (BioRad, Hercules, Calif.) in HBSS plus 5% newborn calf serum was added to each well and incubated for 1 hr at 37° C. The wells were washed three times with HBSS, then 100 μL of TMB substrate (BioRad, Hercules, Calif.) was added to each well. The reaction was stopped after blue color developed by addition of 50 μL of 1N H2 SO4. Absorbance is measured at 450 nm with a plate reader. IC50 values were determined from curves of absorbance values obtained from serial dilutions of compounds (dissolved in dimethyl sulfoxide).
The IC50 value is defined as the drug concentration that inhibits the cytokine-induced adhesion molecule expression by 50%. Maximal values for adhesion molecule expression in cytokine-induced cultures was […] the basal level of adhesion molecule expression (minus cytokines) in the cultures to determine the level of induction. […] Each drug concentration was tested in quadruplicate wells. Single point tests of compounds at 50 μM were assayed as described for IC50 determinations, except that the data represent the level of inhibition without correction for basal expression. (Basal adhesion molecule expression was 10-20% of the total induced expression). Table 1 summarizes the ability of various compounds of this invention to inhibit VCAM-1 using human aortic smooth muscle cells (HASMC). In these experiments, the cells were coincubated with interleukin-4 and the compounds listed about 20 hr before assaying cell surface VCAM-1 levels. Each column represents a separate experiment.
In these experiments, the cells were coincubated with tumor necrosis factor-alpha along with the indicated compounds about 20 to 24 hr before assaying cell surface adhesion molecule expression.
A general note: ELISA stands for enzyme-linked immunosorbent assay.

A short description of data set [1]: HPLC quantitation of compound and metabolite concentration in rabbit serum and liver. Format: in vivo, female New Zealand White rabbits. The note with it: for concentration at 168 h: po. Here is the method:
Five independent experiments were performed in the following manner. […] Female New Zealand White rabbits (Hazelton, ~2.0-2.3 kg) were fed 0.2% cholesterol enriched rabbit chow (Purina #5322) with or without 0.4% MDL compound (except, MDL 108,804 at 0.26% and MDL 103,491 repeated at 0.6%). The MDL compounds were solubilized in 100% ethanol. MDL 108,208 was not soluble in 100% ethanol, but it was soluble in diethyl ether:ethanol (3:2 by volume). The chow was sprayed with the MDL mixtures and allowed to dry overnight in a chemical fume hood. Control chow was sprayed with ethanol. Rabbits were fed 100 grams food per day for 7 days (0.6% MDL 103,491 were fed for 14 days); water was available ad libitum. On day 7, rabbits (fasted overnight) were bled (~2 mL) from marginal ear vein; 0.6% MDL 103,491 treated rabbits were tested on day 14. They were euthanized by carbon dioxide overdose. The total body and liver weights were recorded in grams. Food consumption was recorded as grams.cndot.day^-1 .cndot.rabbit^-1. Aliquots of fresh serum were used for clinical chemistries, lipoprotein cholesterol determination, thiobarbituric acid reactive substances (TBARS) and compound and metabolite concentrations in serum. Livers (~5 gram aliquots) were frozen at -20° C. for compound and metabolite concentration determination at a later time.
Serum and liver concentrations of parent compounds and the metabolites, bisphenol and diphenoquinone, were determined by reverse phase HPLC using a Waters 990 Powerline system. Livers (1 gram) were homogenized with 5.0 mL PBS, pH 7.4, using a Polytron tissue homogenizer at setting 5 for 20-30 seconds. Serum or liver homogenates were extracted as follows: 100 μL of either serum or homogenate were added to 2.0 mL diethyl ether:ethanol (3:1) while vortexing the tube. The sample tubes were capped and centrifuged for 10 min at 5° C. at 3500 rpm in a Beckman GPKR centrifuge with a GH 3.7 rotor. The supernatants were transferred to clean tubes and dried under N2. Samples were reconstituted with 200 μL of acetonitrile:hexane:0.1M ammonium acetate (90:6.5:3.5, by vol.). Then, 100 μL were injected onto a Waters Deltapak C18-300 Å column, and eluted with an 83% acetonitrile:17% water mobile phase at a flow rate of 1.5 mL/min. Absrobances at the wavelengths of 240, 254, and 420 nm were recorded. Compound concentrations were calculated from known quantities of authentic parent compounds after correction for recovery; the range of recovery from spiked samples was 40 to 100%. The lowest detectable limit for this class of compounds was ~0.5 μg/mL. Concentrations were calculated as μg/mL of serum and μg/g of liver.

Where [2] appears, read: rabbit liver, diet 0.4%, 7 days.
Where [3] appears, read: rabbit serum, diet 0.4%, 7 days.
Setting [4] is: rabbit liver, diet 0.4%, 7 days, read-out: Liver Parent = parent compound concentration.
[5] abbreviates: rabbit serum, diet 0.4%, 7 days, read-out: Serum Parent = parent compound concentration.

Results on ten molecules are retold here after patent US5608095A, “Alkyl-4-silyl-phenols and esters thereof as antiatherosclerotic agents” (Hoechst Marion Roussel, Inc., priority 1996, dated 1997).

Read-outs that look alike come from different tables or passages of the source.

In the case of `CC(C)(C)c1cc(OC[Si](C)(C)c2ccccc2)cc(C(C)(C)C)c1OC(=O)CCC(=O)O` [MDL 103,076, 2,6-Di-t-butyl-4-[(dimethylphenylsilyl)methyloxy]phenol succinic acid ester], in the data set with ICAM-1, the ICAM-1 % inh. came out at 76%.
Regarding `CC(C)(C)c1cc(SC[Si](C)(C)c2ccccc2)cc(C(C)(C)C)c1OC(=O)CCC(=O)O` [MDL 103,141, 2,6-Di-t-butyl-4-[(dimethylphenylsilyl)methylthio]phenol sucinic acid ester], in the data set on ICAM-1, the ICAM-1 % inh. amounted to 79.5%.
For `CC(C)(C)c1cc(OC[Si](C)(C)c2ccccc2)ccc1O` [MDL 103,491, 2-t-Butyl-4-[(dimethylphenylsilyl)methyloxy]phenol], in the data set with ICAM-1, the ICAM-1 % inh. is reported as 80%. Besides, the “Liver Parent = parent compound concentration” value in data set [1] (setting [2]) turned out to be 0 µg/g; in data set [1] (rabbit liver, diet 0.6%, 14 days), 0 µg/g. Also, the “Serum Parent = parent compound concentration” value in data set [1] (setting [3]) amounted to 0 µg/mL; in data set [1] (rabbit serum, diet 0.6%, 14 days) it was 0 µg/mL.
Take `CN(C)c1ccc([Si](C)(C)COc2cc(C(C)(C)C)c(O)c(C(C)(C)C)c2)cc1` [MDL 104,556, 2,6-Di-t-butyl-4-[(4-N,N-dimethylaminophenyldimethylsilyl)methyloxy]phenol]: in the data set with ICAM-1, the ICAM-1 % inh. amounted to 1.5%. Moreover, the concentration at 168 h in data set [1] (setting [4]) amounted to 7900 ng/g; in data set [1] (setting [5]) it was 4900 ng/mL.
For `CC(C)(C)c1cc(OC[Si](C)(c2ccccc2)c2ccccc2)cc(C(C)(C)C)c1O` [MDL 104,599, 2,6-Di-t-butyl-4-[(diphenylmethylsilyl)methloxy]phenol], the concentration at 168 h came to 47200 ng/g in data set [1] (setting [4]) and 14800 ng/mL in data set [1] (setting [5]).
Consider `CC(C)(C)c1cc(OC[Si](C)(C)c2ccccc2)c(C(C)(C)C)cc1O` [MDL 104,962, 2,5-Di-t-butyl-4-[(dimethylphenylsilyl)methyloxy]phenol], for which the values for the concentration at 168 h in data set [1] (setting [4]) and in data set [1] (setting [5]) were 3600 ng/g and 3800 ng/mL, respectively.
`Cc1cc(OC[Si](C)(C)c2ccccc2)c(C)c(C)c1O` [MDL 105,314, 2,3,6-Trimethyl-4-[(dimethylphenylsdilyl)methloxy]phenol]: in the data set with ICAM-1, the ICAM-1 % inh. is given as 75.5%.
Consider `CC(=O)Oc1ccc(OC[Si](C)(C)c2ccccc2)cc1C(C)(C)C` [MDL 105,443, 2-t-Butyl-4-[(dimethylphenylsilyl)methyloxy]phenol acetic acid ester], for which, in the data set on ICAM-1, the ICAM-1 % inh. turned out to be 73.0%. Besides, in data set [1] (setting [2]), the “Liver Parent = parent compound concentration” value was 0 µg/g. Also, the “Serum Parent = parent compound concentration” value in data set [1] (setting [3]) is 0 µg/mL.
`CC(C)(C)c1cc(OC[Si](C)(C)c2ccc(C(F)(F)F)cc2)cc(C(C)(C)C)c1O` [MDL 105,975, 2,6-Di-t-butyl-4-[(dimethyl-4-trifluoromethylphenylsilyl)methyloxy]phenol]: the ICAM-1 % inh. with ICAM-1 is listed as 2.5%. Moreover, the concentration at 168 h stood at 54600 ng/g in data set [1] (setting [4]) and 13800 ng/mL in data set [1] (setting [5]).
In the case of `COc1ccc([Si](C)(C)COc2ccc(O)c(C(C)(C)C)c2)cc1` [MDL 106,834, 2-t-Butyl-4-[(dimethyl-p-methoxylphenylsilyl)methyloxy]phenol], the results for the concentration at 168 h in data set [1] (setting [4]) and in data set [1] (setting [5]) were 9100 ng/g and 2900 ng/mL, respectively.
